Measurements: ChEMBL document CHEMBL3046425, “Synthesis of Antifungal 2-Anilino-4-phenylthiazoles and Their Inhibitory Activities on Sterol Biosynthesis” (J Pestic Sci, 2001)
Values after ≈ are worked out from the molar mass of the structure shown.

How the values were obtained:
[1] = tested on: Trichophyton mentagrophytes; experiment: Antifungal activity against Trichophyton mentagrophytes; type: functional
[2] = tested on: Pyricularia oryzae; experiment: Antifungal activity against Magnaporthe oryzae; type: functional, organism-based
[3] = tested on: Botrytis cinerea; experiment: Antifungal activity against Botryotinia fuckeliana; type: functional, organism-based
[4] = tested on: Botrytis cinerea; experiment: Antifungal activity against Botryotinia fuckeliana assessed as accumulation of squalene using [2-14C]acetate at 1 x 10^-5 M; type: functional
[5] = tested on: Botrytis cinerea; experiment: Antifungal activity against Botryotinia fuckeliana assessed as accumulation of squalene using [2-14C]acetate at 3 x 10^-5 M; type: functional
[6] = tested on: Trichophyton mentagrophytes; experiment: Antifungal activity against Trichophyton mentagrophytes assessed as accumulation of squalene using [2-14C]acetate at 1 x 10^-9 M; type: functional
[7] = tested on: Trichophyton mentagrophytes; experiment: Antifungal activity against Trichophyton mentagrophytes assessed as accumulation of squalene using [2-14C]acetate at 1 x 10^-7 M; type: functional
[8] = tested on: Botrytis cinerea; experiment: Antifungal activity against Botryotinia fuckeliana assessed as accumulation of squalene using [2-14C]acetate at 1 x 10^-7 M; type: functional
[9] = target: T1, Squalene epoxidase ERG1 (Saccharomyces cerevisiae S288c) (UniProt P32476); experiment: Inhibition of squalene epoxidase in Saccharomyces cerevisiae IFO 1346 assessed as incorporation of [2-14C]mevalonate into 4-desmethyl sterols at 1 x 10^-5 M after 3 hr; parameters: scale not given: the % may be the effect or the level left
T1 sequence (whole entry): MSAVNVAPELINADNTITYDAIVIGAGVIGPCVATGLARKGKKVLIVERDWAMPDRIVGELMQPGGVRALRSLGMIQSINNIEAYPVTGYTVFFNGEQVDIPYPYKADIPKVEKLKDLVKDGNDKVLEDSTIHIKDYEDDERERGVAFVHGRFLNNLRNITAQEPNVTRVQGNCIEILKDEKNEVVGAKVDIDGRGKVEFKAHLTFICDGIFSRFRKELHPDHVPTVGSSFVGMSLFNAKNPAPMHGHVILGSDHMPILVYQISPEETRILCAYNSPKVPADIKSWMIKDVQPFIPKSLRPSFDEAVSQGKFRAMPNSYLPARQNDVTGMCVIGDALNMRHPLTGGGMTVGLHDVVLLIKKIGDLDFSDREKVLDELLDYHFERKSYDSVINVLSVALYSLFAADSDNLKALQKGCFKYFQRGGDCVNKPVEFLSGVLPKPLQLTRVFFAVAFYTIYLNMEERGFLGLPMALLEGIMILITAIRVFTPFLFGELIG

[10] = target: T1, Squalene epoxidase ERG1 (Saccharomyces cerevisiae S288c); experiment: Inhibition of squalene epoxidase in Saccharomyces cerevisiae IFO 1346 assessed as incorporation of [2-14C]mevalonate into 2,3-oxidosqualene at 1 x 10^-5 M after 3 hr; parameters: scale not given: the % may be the effect or the level left
[11] = target: T1, Squalene epoxidase ERG1 (Saccharomyces cerevisiae S288c); experiment: Inhibition of squalene epoxidase in Saccharomyces cerevisiae IFO 1346 assessed as incorporation of [2-14C]mevalonate into 4,4-dimethyl sterols at 1 x 10^-5 M after 3 hr; parameters: scale not given: the % may be the effect or the level left
[12] = tested on: Botrytis cinerea; experiment: Antifungal activity against Botryotinia fuckeliana assessed as accumulation of squalene using [2-14C]acetate at 1 x 10^-6 M; type: functional
[13] = target: T1, Squalene epoxidase ERG1 (Saccharomyces cerevisiae S288c); experiment: Inhibition of squalene epoxidase in Saccharomyces cerevisiae IFO 1346 assessed as incorporation of [2-14C]mevalonate into 4alpha-methyl sterols at 1 x 10^-5 M after 3 hr; parameters: scale not given: the % may be the effect or the level left
[14] = target: T1, Squalene epoxidase ERG1 (Saccharomyces cerevisiae S288c); experiment: Inhibition of squalene epoxidase in Saccharomyces cerevisiae IFO 1346 assessed as incorporation of [2-14C]mevalonate into squalene at 1 x 10^-5 M after 3 hr; parameters: scale not given: the % may be the effect or the level left
[15] = tested on: Trichophyton mentagrophytes; experiment: Antifungal activity against Trichophyton mentagrophytes assessed as accumulation of squalene using [2-14C]acetate at 1 x 10^-8 M; type: functional

SMILES	MIC [1] [µg/mL]	EC50 [2] [µg/mL]	EC50 [3] [µg/mL]	other results
Fc1ccc(Nc2nc(-c3c(Cl)cccc3Cl)cs2)cc1	0.1 (≈ 0.295 µM)	3 (≈ 8.84 µM)	0.2 (≈ 0.59 µM)	–
Clc1ccc(Nc2nc(-c3c(Cl)cccc3Cl)cs2)c(Cl)c1	0.3 (≈ 0.769 µM)	5 (≈ 12.8 µM)	> 100	–
CN(C)c1ccc(Nc2nc(-c3c(Cl)cccc3Cl)cs2)cc1	1 (≈ 2.74 µM)	> 100	> 100	–
CC(C)Oc1ccc(Nc2nc(-c3c(Cl)cccc3Cl)cs2)cc1	30 (≈ 79.1 µM)	3 (≈ 7.91 µM)	> 100	–
Clc1ccc(Cc2nc(-c3c(Cl)cccc3Cl)cs2)cc1	> 100	> 100	> 100	Activity [4]: 3.8%
COc1ccc(Nc2nc(-c3c(Cl)cccc3Cl)cs2)cc1	0.1 (≈ 0.285 µM)	10 (≈ 28.5 µM)	> 100	–
O=[N+]([O-])c1ccc(Nc2nc(-c3c(Cl)cccc3Cl)cs2)cc1	30 (≈ 81.9 µM)	> 100	> 100	–
Clc1ccc(Nc2nc(-c3cccc(Cl)c3)cs2)cc1	3 (≈ 9.34 µM)	0.3 (≈ 0.934 µM)	> 100	Activity [5]: 1.7%
COc1ccc(Br)c(OC)c1-c1csc(Nc2ccc(Cl)cc2)n1	3 (≈ 7.05 µM)	0.5 (≈ 1.17 µM)	> 100	–
Fc1cc(Cl)ccc1Nc1nc(-c2c(Cl)cccc2Cl)cs1	0.1 (≈ 0.268 µM)	0.5 (≈ 1.34 µM)	0.1 (≈ 0.268 µM)	–
CN(c1ccc(Cl)cc1)c1nc(-c2c(Cl)cccc2Cl)cs1	3 (≈ 8.11 µM)	1 (≈ 2.7 µM)	> 100	Activity [5]: 2%
Clc1ccc(Nc2nc(-c3c(Cl)cccc3Cl)ns2)cc1	0.1 (≈ 0.28 µM)	0.6 (≈ 1.68 µM)	0.2 (≈ 0.561 µM)	–
Cc1ccc(Nc2nc(-c3c(Cl)cccc3Cl)cs2)cc1	0.1 (≈ 0.298 µM)	3 (≈ 8.95 µM)	0.3 (≈ 0.895 µM)	–
FC(F)(F)c1ccc(Nc2nc(-c3c(Cl)cccc3Cl)cs2)cc1	0.03 (≈ 0.0771 µM)	0.3 (≈ 0.771 µM)	0.3 (≈ 0.771 µM)	–
Clc1cccc(Cl)c1-c1csc(Nc2ccccc2)n1	1 (≈ 3.11 µM)	2 (≈ 6.23 µM)	> 100	–
Clc1cccc(Cl)c1-c1csc(Nc2ccc(Br)cc2)n1	0.03 (≈ 0.075 µM)	0.5 (≈ 1.25 µM)	0.05 (≈ 0.125 µM)	–
CC(C)c1ccc(Nc2nc(-c3c(Cl)cccc3Cl)cs2)cc1	0.3 (≈ 0.826 µM)	2 (≈ 5.5 µM)	> 100	–
Clc1ccc(Nc2nc(-c3ccc4ccccc4c3)cs2)cc1	> 100	> 100	> 100	Activity [6]: >35%; Activity [7]: 38.7%
Clc1ccc(Oc2nc(-c3c(Cl)cccc3Cl)cs2)cc1	1 (≈ 2.8 µM)	1 (≈ 2.8 µM)	0.5 (≈ 1.4 µM)	Activity [5]: 68%; Activity [4]: 61.1%
Clc1cccc(Cl)c1-c1csc(Nc2ccc(I)cc2)n1	0.03 (≈ 0.0671 µM)	0.3 (≈ 0.671 µM)	0.2 (≈ 0.447 µM)	–

SMILES	MIC [1] [µg/mL]	EC50 [2] [µg/mL]	EC50 [3] [µg/mL]	other results
Clc1ccc(Nc2nc(-c3c(Cl)cc(Cl)cc3Cl)cs2)cc1	0.1 (≈ 0.256 µM)	0.3 (≈ 0.769 µM)	0.05 (≈ 0.128 µM)	–
FC(F)(F)Oc1ccc(Nc2nc(-c3c(Cl)cccc3Cl)cs2)cc1	0.03 (≈ 0.074 µM)	0.3 (≈ 0.74 µM)	0.5 (≈ 1.23 µM)	–
Cc1cccc(C)c1-c1csc(Nc2ccc(Cl)cc2)n1	0.1 (≈ 0.318 µM)	10 (≈ 31.8 µM)	0.05 (≈ 0.159 µM)	–
Cc1cccc(N(C)C(=S)Oc2ccc3ccccc3c2)c1 [TOLNAFTATE]	–	–	–	Activity [8]: 10%; Activity [9]: 43.6%; Activity [6]: 74.2%; Activity [10]: 3.5%; Activity [11]: 1.9%; Activity [12]: 66%; Activity [4]: 79%; Activity [7]: 81.5%; Activity [13]: 1.2%; Activity [14]: 49%; Activity [15]: 72.1%
Clc1ccc(Nc2nc(-c3ccc(Cl)cc3)cs2)cc1	> 100	0.3 (≈ 0.934 µM)	> 100	Activity [5]: 8.4%
Clc1ccc(Nc2nc(-c3ccccc3Cl)cs2)cc1	0.3 (≈ 0.934 µM)	0.3 (≈ 0.934 µM)	> 100	Activity [5]: 46.3%; Activity [4]: 28.8%
Fc1cccc(F)c1-c1csc(Nc2ccc(Cl)cc2)n1	0.3 (≈ 0.929 µM)	1 (≈ 3.1 µM)	> 100	–
Clc1ccc(Nc2nc(-c3c(Cl)cccc3Cl)cs2)cc1Cl	0.1 (≈ 0.256 µM)	1 (≈ 2.56 µM)	1 (≈ 2.56 µM)	–
CCCOC/C(=N\c1ccc(Cl)cc1C(F)(F)F)n1ccnc1	–	–	–	Activity [9]: 12.6%; Activity [10]: 2.9%; Activity [11]: 54%; Activity [13]: 10.3%; Activity [14]: 19.3%
CSc1ccc(Nc2nc(-c3c(Cl)cccc3Cl)cs2)cc1	0.1 (≈ 0.272 µM)	4 (≈ 10.9 µM)	0.3 (≈ 0.817 µM)	–
CC(C)(C)c1ccc(Nc2nc(-c3c(Cl)cccc3Cl)cs2)cc1	> 100	1 (≈ 2.65 µM)	> 100	–
CS(=O)(=O)c1ccc(Nc2nc(-c3c(Cl)cccc3Cl)cs2)cc1	3 (≈ 7.51 µM)	3 (≈ 7.51 µM)	> 100	–
Clc1cccc(Nc2nc(-c3c(Cl)cccc3Cl)cs2)c1	0.1 (≈ 0.281 µM)	10 (≈ 28.1 µM)	> 100	Activity [4]: 4%
COc1cccc(OC)c1-c1csc(Nc2ccc(Cl)cc2)n1	0.03 (≈ 0.0865 µM)	5 (≈ 14.4 µM)	0.2 (≈ 0.577 µM)	Activity [8]: 2.3%; Activity [6]: 30.5%; Activity [12]: 46.9%; Activity [4]: 79.8%; Activity [7]: 84.1%; Activity [15]: 70.6%
C[S+]([O-])c1ccc(Nc2nc(-c3c(Cl)cccc3Cl)cs2)cc1 (centres undefined)	30 (≈ 78.3 µM)	2 (≈ 5.22 µM)	> 100	–
CCCc1ccc(Nc2nc(-c3c(Cl)cccc3Cl)cs2)cc1	0.1 (≈ 0.275 µM)	30 (≈ 82.6 µM)	> 100	–
Clc1ccc(Nc2nc(-c3cccc4ccccc34)cs2)cc1	0.1 (≈ 0.297 µM)	2 (≈ 5.94 µM)	0.3 (≈ 0.891 µM)	Activity [6]: 25.3%; Activity [7]: 83.1%; Activity [15]: 11.7%
Clc1ccc(Nc2nc(-c3cccc(Cl)c3Cl)cs2)cc1	3 (≈ 8.43 µM)	> 100	> 100	–
Clc1ccc(Nc2nc(-c3ccccc3)cs2)cc1	3 (≈ 10.5 µM)	1 (≈ 3.49 µM)	> 100	Activity [5]: 14.3%; Activity [4]: 2%
